The conditions of series [1]: cited from earlier work.
A short description of series [2]: Liver microsomes stability, human. The conditions noted are these: for Remaining Percentage (%) 0 min / Remaining Percentage (%) 60 min: Human. The procedure:
(§1) The objective of this study was to estimate in vitro metabolic stability of 1-12 in pooled human and male mouse liver microsomes. The concentrations of parent compounds in reaction systems were evaluated by LC-MS/MS for estimating the stability in pooled human and male mouse liver microsomes. The in vitro intrinsic clearances of test compounds were determined as well.
(§2) A master solution in the “Incubation Plate” containing phosphate buffer, ultra-pure H2O, MgCl2 solution and liver microsomes was made according to Table 3. The mixture was pre-warmed at 37° C. water bath for 5 minutes.
(§3) 40 μL of 10 mM NADPH solution was added to each well. The final concentration of NADPH was 1 mM. The negative control samples were prepared by replacing NADPH with 40 μL of ultra-pure H2O. Samples were prepared in duplicate. Negative controls were prepared in singlet.
(§4) The reaction was started with the addition of 4 μL of 200 μM exemplary test compounds or control compounds to each master solution to get the final concentration of 2 μM. This study was performed in duplicate.
(§5) Aliquots of 50 μL were taken from the reaction solution at 0, 15, 30, 45 and 60 minutes. The reaction solutions were stopped by the addition of 4 volumes of cold methanol with IS (100 nM alprazolam, 200 nM imipramine, 200 nM labetalol and 2 μM ketoprofen). Samples were centrifuged at 3,220 g for 40 minutes. Aliquot of 90 μL of the supernatant was mixed with 90 μL of ultra-pure H2O and then was used for LC-MS/MS analysis.
(§6) LC/MS analysis was performed for all samples from this study using a Shimadzu liquid chromatograph separation system equipped with degasser DUG-20A5R; solvent delivery unit LC-30AD; system controller SIL-30AC; column oven CTO-30A; CTC Analytics HTC PAL System; Mass spectrometric analysis was performed using an Triple Quad™ 5500 instrument.
(§7) All calculations were carried out using Microsoft Excel. Peak area ratios of test compound to internal standard (listed in the below table) were determined from extracted ion chromatograms.
(§8) All calculations were carried out using Microsoft Excel. Peak areas were determined from extracted ion chromatograms. The slope value, k, was determined by linear regression of the natural logarithm of the remaining percentage of the parent drug vs. incubation time curve.
(§9) The in vitro half-life (in vitro t½) was determined from the slope value:
(§10) Conversion of the in vitro t½ (min) into the in vitro intrinsic clearance (in vitro CLint, in μL/min/mg proteins) was done using the following equation (mean of duplicate determinations): […]
Background: Microsomes from liver hold many membrane-bound enzymes, among them those of drug oxidation.

In the next series the target is human 5-HT2A receptor (Homo sapiens (Human), UniProt P28223). In words: Radioligand binding assay ([3H]-ketanserin) on human 5-HT2A receptor. The note with it: [3H]-ketanserin competition; read-out: h5-HT2A IC50. How it is done: • i. The assay buffer was prepared following the table below;
• ii. 8 doses of reference and exemplary test compounds were prepared starting from 10 mM stock solution as requested by 5-fold serial dilutions with 100%; • iii. (v/v) DMSO was prepared: a. 50 μl/well of 0.5% (v/v) PEI was added to UniFilter-96 GF/B plates. The plates were sealed and incubates at 4° C. for 3 hrs; b. After incubation, the plates were washed 3 times with ice-cold wash buffer (50 mM Tris, pH7.4); • iv. Preparation of assay plates: a. Cell membrane was diluted with assay buffer and 330 μl/well was added to 96 round deep well plates to reach a concentration of 20 μg/well; b. 8 concentrations of reference or exemplary test compounds were prepared and added 110 μl/well to 96 round deep well plates; c. [3H]-ketanserin was diluted with assay buffer to 5 nM (5× final concentration) and added 110 μl/well to 96 round deep well plates. • v. The plate were centrifuged at 1000 rpm for 30 secs and then agitated at 600 rpm, R.T. for 5 min. • vi. The plates were sealed and incubated at 27° C. for 90 min. • vii. The incubation was stopped by vacuum filtration onto GF/B filter plates followed by 4 times washing with ice-cold wash buffer (50 mM Tris, pH7.4). • vii. […] The filter plates were sealed and 40 μl/well of scintillation cocktail added. • x. The plate was read by using a Microbeta2 microplate counter.
For reference and exemplary test compounds, the results are expressed as % Inhibition, using the normalization equation: N=100−100×(U−C2)/(C1−C2), where U is the unknown value, C1 is the average of high controls, and C2 is the average of low controls. The IC50 was determined by fitting percentage of inhibition as a function of compound concentrations with Hill equation using XLfit.

Series [3] deals with human 5-HT2A (h5-HT2A) receptor (Homo sapiens (Human), UniProt P28223). In words: FLIPR assay, human 5-HT2A receptor under agonist mode. Type of series: cell-based. The note with it: FLIPR calcium. The procedure:
I. Assessment of the Activated Effect of Exemplary Compounds of Formula I Targeting on Human 5-HT2A (h5-HT2A) Receptor Under Agonist Mode:
1. the Cells were cultured in cell culture medium (DMEM containing 10% FBS 1×penicillin-streptomycin 300 μg/ml G418 and 100 μg/ml hygromycin B) at 37° C., 5% (v/v) CO2.
2. One day before the assays, the cells were detached using TrypLE™ Express and cells were counted using cell counter.
3. 20000 cells/well were seeded in 30 μl/well culture medium to a 384-well cell plate and the cells were incubated overnight at 37° C., 5% (v/v) CO2.
4. On the assay day, 2× dye solution was prepared following the manual of the FLIPR® Calcium 6 Assay Kit: i. The dye was diluted with assay buffer(20 mM HEPES in 1×HBSS, PH7.4); ii. Probenecid was added to the final concentration of 5 mM; iii. Vortex vigorously for 1-2 minutes.
5. Medium was removed from cell plate by flicking the cell plate on towel papers.
6. 10 μl of assay buffer and 10 μl of 2× dye solution was added to each well of the cell plate.
7. The cell plate was placed on plate shaker, and the plate was agitated at 600 rpm for 2 minutes. The plate was incubated at 37° C. for 2 hours followed by additional 15-minute incubation at 25° C.
8. 3× compound in assay buffer was prepared: a. reference compounds were diluted to required concentration with DMSO. Compounds were added to a 384-well compound plate; b. Serial dilutions were performed; c. 10 mM test compounds were added to the compound plate, 3-fold serial dilutions were performed. d. […] 20 μl/well assay buffer was added to the compound plate; f. The plate was mixed on plate shaker for 2 mins;
i. The normalized fluorescence reading (RFU) was calculated as shown below, wherein Fmax and Fmin stand for maximum and minimum of calcium signal during defined time window: RFU=Fmax−Fmin
ii. The percentage activation was calculated by using following equation: […]
iii. EC50 was calculated by fitting % activation against log of compound concentrations with Hill equation using XLfit.

Series [4] is described as follows: Liver microsomes stability, mouse. The conditions noted are these: for Remaining Percentage (%) 0 min / Remaining Percentage (%) 60 min: Mouse. How it is done:
as §1, §2, §3, §4, §5, §6, §7, §8, §9, §10

Series [5] in a line: Liver microsomes stability, rat. The note with it: for Remaining Percentage (%) 0 min / Remaining Percentage (%) 60 min: Rat. The procedure:
as §1, §2, §3, §4, §5, §6, §7, §8, §9, §10

Usually CLint scaled stands for the rate of metabolic loss divided by the concentration. A higher CLint scaled goes with faster metabolism. For orientation: half-life means the time in which the quantity being followed falls by half. For orientation: microsomal CLint means a measure of how fast metabolising enzymes remove a compound, apart from limits set by blood flow. A high value points to rapid turnover. One may read the IC50 as the concentration needed to halve the response being measured. As usually defined, the EC50 is the concentration at which the effect is half-maximal.

SMILES strings stand for the structures. Read-outs that look alike come from different tables or passages of the source. Some results are limits rather than exact numbers.

Take `CN(C)CCc1c[nH]c2cccc(OP(=O)(O)O)c12` [Psilocybin, 4-phosphoryloxy-N,N-dimethyltrypatmine]: the abstinence rate in series [1] (12 months follow-up) is reported as 67%; in series [1] (six months follow-up), 80%.

Regarding `[2H]C1([2H])CC(c2c[nH]c3cccc(OCc4ccccc4)c23)C([2H])([2H])N1C` (single isomer, unassigned) [Compound I-37, 4-(benzyloxy)-3-(1-methylpyrrolidin-3-yl-2,2,5,5-d4)-1H-indole], the “Predicted hepatic CL” value in series [2] (Human liver microsomes, with NADPH) is 9.50 mL/min/kg; in series [4] (Mouse liver microsomes, with NADPH), 55.10 mL/min/kg; in series [5] (Rat liver microsomes, with NADPH) it was 26.15 mL/min/kg. The “Remaining Percentage (%) 0 min” value in series [2] (With NADPH), in series [2] (Without NADPH), in series [4] (With NADPH), in series [4] (Without NADPH), in series [5] (With NADPH) and in series [5] (Without NADPH) was 100.00% in each case. For the same compound, the “Remaining Percentage (%) 60 min” value in series [2] (With NADPH) stood at 65.70%; in series [2] (Without NADPH), 99.55%; in series [4] (With NADPH), 37.75%; in series [4] (Without NADPH) it was 93.26%; in series [5] (With NADPH), 43.53%; in series [5] (Without NADPH), 101.84%. For the same compound, the CLint scaled at 2 μM in series [2] (human, microsomes) is 17.6 mL/min/kg; in series [4] (male, mouse, microsomes), 142 mL/min/kg; in series [5] (rat, microsomes) it was 49.7 mL/min/kg. For the same compound, the half-life at 2 μM in series [2] (human, microsomes) was found to be 99 min; in series [4] (male, mouse, microsomes), 42.7 min; in series [5] (rat, microsomes), 50 min. Besides, the microsomal CLint at 2 μM in series [2] (human, microsomes) amounted to 14 µL/min/mg; in series [4] (male, mouse, microsomes), 32.5 µL/min/mg; in series [5] (rat, microsomes) it was 27.7 µL/min/mg. For the same compound, the IC50 at human 5-HT2A receptor is less than 1000 nM. For the same compound, the EC50 in series [3] was greater than 10 µM.

Source of the values: patent US20240051978A1, “3-CYCLIC AMINE-INDOLE DERIVATIVES AS SEROTONERGIC AGENTS FOR THE TREATMENT OF CNS DISORDERS” (MINDSET PHARMA INC., priority 2020, published 2024).
